In this assay the target is T1, human LMPTP-A (Homo sapiens, UniProt P24666).
T1 sequence (P24666 1-158): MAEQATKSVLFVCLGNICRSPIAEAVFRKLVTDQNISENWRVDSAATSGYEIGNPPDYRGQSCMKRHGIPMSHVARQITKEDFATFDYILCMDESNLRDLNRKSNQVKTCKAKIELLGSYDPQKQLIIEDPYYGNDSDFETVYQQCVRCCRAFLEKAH
Description: Enzyme Assay of Inhibition of LMPTP-A (phosphatase assay, OMFP or pNPP substrate). Particulars: Bis-Tris pH 6.0, 37° C. It counts as biochemical. The method, then: Phosphatase assays were performed in buffer containing 50 mM Bis-Tris, pH 6.0, 1 mM DTT and 0.01% Triton X-100 at 37° C. For assays conducted with 3-O-methylfluorescein phosphate (OMFP) as substrate, fluorescence was monitored continuously at λex=485 and λem=525 nm. For assays conducted with para-nitrophenylphosphate (pNPP) as substrate, the reaction was stopped by addition of 2× reaction volume of 1 M NaOH, and absorbance was measured at 405 nm. IC50 values of compounds of Formula (I), (II), (III), or (IV) were determined from plots of inhibitor concentration versus percentage of enzyme activity. For inhibitor selectivity assays, each PTP was incubated with either 0.4 mM OMFP or 5 mM pNPP in the presence of 40 μM compound or DMSO. […] For the inhibitor reversibility assay, 50 nM human LMPTP-A was pre-incubated with 10 μM of compound of Formula (I), (II), (III), or (IV) or DMSO for 5 min. The enzyme was diluted 100× in phosphatase assay buffer containing 0.4 mM OMFP and fluorescence was measured at the indicated time points.
The term IC50 denotes the concentration at which inhibition is half-maximal. Read a low IC50 as inhibition by little substance. Take `CN(C)CCNC(=O)c1cc2cc(-c3cc(NCCCN4CCCCC4)c4cnccc4n3)ccc2n1C` [N-(2-(dimethylamino)ethyl)-1-methyl-5-(4-((3-(piperidin-1-yl)propyl)amino)-1,6-naphthyridin-2-yl)-1H-indole-2-carboxamide]: the IC50 was no more than 1000 nM.

Compound `CCN(CC)C(=O)c1ccc(-c2cc(NC3CCNC3)c3cnccc3n2)cc1` (centres unmarked) [N,N-diethyl-4-(4-(pyrrolidin-3-ylamino)-1,6-naphthyridin-2-yl)benzamide] returned an IC50 of 1000 to 20000 nM.

The compound `Cc1cncc2c(NCCCN3CCCCC3)cc(-c3ccc(C(=O)NCCCN4CCCCC4)cc3)nc12` [4-(8-Methyl-4-((3-(piperidin-1-yl)propyl)amino)-1,6-naphthyridin-2-yl)-N-(3-(piperidin-1-yl)propyl)benzamide] had an IC50 of no less than 20000 nM.

Regarding `CN1CCC(NC(=O)c2ccc(-c3cc(NC4CCOCC4)c4cnccc4n3)cc2)CC1` [N-(1-Methylpiperidin-4-yl)-4-(4-((tetrahydro-2H-pyran-4-yl)amino)-1,6-naphthyridin-2-yl)benzamide], the IC50 was no more than 1000 nM.

On to `CCN(CC)C(=O)/C=C/c1ccc(-c2cc(NCCCN3CCCCC3)c3cnccc3n2)o1` [(E)-N,N-Diethyl-3-(5-(4-((3-(piperidin-1-yl)propyl)amino)-1,6-naphthyridin-2-yl)furan-2-yl)acrylamide], for which the half-maximal inhibitory concentration (IC50) was in the range of 1000 to 20000 nM.

`CN1CCC(Nc2cc(-c3ccc4c(c3)cc(C(=O)NCCCN3CCCCC3)n4C)nc3ccncc23)CC1` [1-Methyl-5-(4-((1-methylpiperidin-4-yl)amino)-1,6-naphthyridin-2-yl)-N-(3-(piperidin-1-yl)propyl)-1H-indole-2-carboxamide]: the IC50 is 1000 to 20000 nM.

In turn, `CN1CCC(NC(=O)CCOCc2ccc(-c3cc(NCCCN4CCCCC4)c4cnccc4n3)cc2)CC1` [N-(1-Methylpiperidin-4-yl)-3-(4-(4-(3-(piperidin-1-yl)propylamino)-1,6-naphthyridin-2-yl)benzyloxy)propanamide] gave a half-maximal inhibitory concentration (IC50) of no more than 1000 nM.

Turning to `CN1CCC(NC(=O)COCc2ccc(-c3cc(NCCCN4CCCCC4)c4cnccc4n3)cc2)CC1` [N-(1-methylpiperidin-4-yl)-2-((4-(4-((3-(piperidin-1-yl)propyl)amino)-1,6-naphthyridin-2-yl)benzyl)oxy)acetamide], the 50% inhibitory concentration (IC50) is no more than 1000 nM.

For `CN1CCC(CNC(=O)COCc2ccc(-c3cc(NCCCN4CCCCC4)c4cnccc4n3)cc2)CC1` [N-((1-methylpiperidin-4-yl)methyl)-2-(4-(4-(3-(piperidin-1-yl)propylamino)-1,6-naphthyridin-2-yl)benzyloxy)acetamide], the IC50 is no more than 1000 nM.

Turning to `COC(=O)c1ccc(-c2cc(NCCCN3CCCCC3)c3cnccc3n2)c(C(N)=O)c1` [methyl 3-carbamoyl-4-(4-((3-(piperidin-1-yl)propyl)amino)-1,6-naphthyridin-2-yl)benzoate], the concentration for half-maximal inhibition (IC50) is 1000 to 20000 nM.

Consider `O=C(O)c1ccc(-c2cc(NCCCN3CCCCC3)c3cnccc3n2)cc1` [4-(4-((3-(piperidin-1-yl)propyl)amino)-1,6-naphthyridin-2-yl)benzoic acid], for which the IC50 is no more than 1000 nM.

For `CN1CCC(NC(=O)c2cc3cc(-c4cc(NCc5ccc(CN6CCCCC6)cc5)c5cnccc5n4)ccc3n2C)CC1` [1-methyl-N-(1-methylpiperidin-4-yl)-5-(4-(4-(piperidin-1-ylmethyl)benzylamino)-1,6-naphthyridin-2-yl)-1H-indole-2-carboxamide], the IC50 was no more than 1000 nM.

For the compound `CN1CCC(NC(=O)c2ccc(-c3cc(NC4CCN(C)C4)c4cnccc4n3)cc2)CC1` (centres unmarked) [N-(1-Methylpiperidin-4-yl)-4-(4-((1-methylpyrrolidin-3-yl)amino)-1,6-naphthyridin-2-yl)benzamide], the IC50 fell in the range of 1000 to 20000 nM.

Compound `CCN(CC)C(=O)c1ccc(-c2cc(NC3CCOCC3)c3cnccc3n2)cc1` [N,N-diethyl-4-(4-(tetrahydro-2H-pyran-4-ylamino)-1,6-naphthyridin-2-yl)benzamide] yielded an IC50 of 1000 to 20000 nM.

As to `Cn1c(C(=O)NC2CCS(=O)(=O)CC2)cc2cc(-c3cc(NCCCN4CCCCC4)c4cnccc4n3)ccc21` [N-(1,1-dioxidotetrahydro-2H-thiopyran-4-yl)-1-methyl-5-(4-((3-(piperidin-1-yl)propyl)amino)-1,6-naphthyridin-2-yl)-1H-indole-2-carboxamide], the IC50 was no more than 1000 nM.

For the compound `CCN1CCN(C(=O)c2cc3ccc(-c4cc(NCCCN5CCCCC5)c5cnccc5n4)cc3s2)CC1` [(4-ethylpiperazin-1-yl)(6-(4-(3-(piperidin-1-yl)propylamino)-1,6-naphthyridin-2-yl)benzo[b]thiophen-2-yl)methanone], the IC50 lay within 1000 to 20000 nM.

Compound `CN1CCC(CCNC(=O)/C=C/c2ccc(-c3cc(NCCCN4CCCCC4)c4cnccc4n3)o2)CC1` [(E)-N-(2-(1-Methylpiperidin-4-yl)ethyl)-3-(5-(4-((3-(piperidin-1-yl)propyl)amino)-1,6-naphthyridin-2-yl)furan-2-yl)acrylamide] gave an IC50 of 1000 to 20000 nM.

`CN1CCC(NC(=O)/C=C/c2ccc(-c3cc(NCCCN4CCCCC4)c4cnccc4n3)o2)CC1` [(E)-N-(1-Methylpiperidin-4-yl)-3-(5-(4-((3-(piperidin-1-yl)propyl)amino)-1,6-naphthyridin-2-yl)furan-2-yl)acrylamide]: the IC50 was no less than 20000 nM.

For the compound `CN1CCC(NC(=O)c2nc3cc(-c4cc(NCCCN5CCCCC5)c5cnccc5n4)cnc3[nH]2)CC1` [N-(1-Methylpiperidin-4-yl)-6-(4-(3-(piperidin-1-yl)propylamino)-1,6-naphthyridin-2-yl)-3H-imidazo[4,5-b]pyridine-2-carboxamide], the IC50 is no more than 1000 nM.

With `CCN(CC)C(=O)c1nc2ccc(-c3cc(NCCCN4CCCCC4)c4cnccc4n3)cc2o1` [N,N-Diethyl-6-(4-(3-(piperidin-1-yl)propylamino)-1,6-naphthyridin-2-yl)benzo[d]oxazole-2-carboxamide], the IC50 was 1000 to 20000 nM.

In the case of `CCN(CC)C(=O)CCc1ccc(-c2cc(NC3CCN(C)CC3)c3cnccc3n2)cc1` [N,N-Diethyl-3-(4-(4-(1-methylpiperidin-4-ylamino)-1,6-naphthyridin-2-yl)phenyl)propanamide], the half-inhibitory concentration (IC50) is no more than 1000 nM.

Compound `CCN(CC)C(=O)c1ccc(-c2cc(NCCCN3CCS(=O)(=O)CC3)c3cnccc3n2)cc1` [4-(4-((3-(1,1-Dioxidothiomorpholino)propyl)amino)-1,6-naphthyridin-2-yl)-N,N-diethylbenzamide] gave an IC50 of 1000 to 20000 nM.

`CCN1CCN(C(=O)c2nc3cc(-c4cc(Nc5ccc(CN6CCCC6)cc5)c5cnccc5n4)ccc3[nH]2)CC1` [(4-ethylpiperazin-1-yl)(5-(4-((4-(pyrrolidin-1-ylmethyl)phenyl)amino)-1,6-naphthyridin-2-yl)-1H-benzo[d]imidazol-2-yl)methanone] displayed a concentration for half-maximal inhibition (IC50) of no less than 20000 nM.

`CCN(CC)C(=O)c1ccc(-c2cc(NCCCN3CCCCC3)c3cccnc3n2)cc1` [N,N-diethyl-4-(4-(3-(piperidin-1-yl)propylamino)-1,8-naphthyridin-2-yl)benzamide] came in with a 50% inhibitory concentration (IC50) of no less than 20000 nM.

For the compound `CCN(CC)C(=O)c1ccc(-c2cc(Nc3ccc(NCCOC)cc3)c3cnccc3n2)cc1` [N,N-Diethyl-4-(4-(4-(2-methoxyethylamino)phenylamino)-1,6-naphthyridin-2-yl)benzamide], the IC50 lay in the range of 1000 to 20000 nM.

Take `O=C(NCCCN1CCCCC1)c1ccc(-c2cc(NCCCN3CCCCC3)c3cnccc3n2)cn1` [N-(3-(piperidin-1-yl)propyl)-5-(4-((3-(piperidin-1-yl)propyl)amino)-1,6-naphthyridin-2-yl)picolinamide]: the half-inhibitory concentration (IC50) is no less than 20000 nM.

`CCN(CC)C(=O)c1ccc(-c2cc(NCCCN3CCCCC3)nc3ncccc23)cc1` [N,N-diethyl-4-(2-(3-(piperidin-1-yl)propylamino)-1,8-naphthyridin-4-yl)benzamide] registered an IC50 of no less than 20000 nM.

`CN(C)CCNC(=O)c1nc2cc(-c3cc(NCCCN4CCCCC4)c4cnccc4n3)ccc2[nH]1` [N-(2-(dimethylamino)ethyl)-5-(4-(3-(piperidin-1-yl)propylamino)-1,6-naphthyridin-2-yl)-1H-benzo[d]imidazole-2-carboxamide] yielded an IC50 of no more than 1000 nM.

Regarding `CC(CCN1CCCCC1)Nc1cc(-c2ccc3c(c2)cc(C(=O)NC2CCN(C)CC2)n3C)nc2ccncc12` (centres unmarked) [1-Methyl-N-(1-methylpiperidin-4-yl)-5-(4-(4-(piperidin-1-yl)butan-2-ylamino)-1,6-naphthyridin-2-yl)-1H-indole-2-carboxamide], the IC50 fell in the range of 1000 to 20000 nM.

`O=C(NC1CCNCC1)c1cc2ccc(-c3cc(NCCCN4CCCCC4)c4cnccc4n3)cc2s1` [6-(4-(3-(piperidin-1-yl)propylamino)-1,6-naphthyridin-2-yl)-N-(piperidin-4-yl)benzo[b]thiophene-2-carboxamide] yielded an IC50 of no more than 1000 nM.

The compound `CN1CCC(NC(=O)/C=C/c2ccc(-c3cc(NCCCN4CCCCC4)c4cnccc4n3)cc2)CC1` [(E)-N-(1-Methylpiperidin-4-yl)-3-(4-(4-(3-(piperidin-1-yl)propylamino)-1,6-naphthyridin-2-yl)phenyl)acrylamide] came in with an IC50 of no more than 1000 nM.

`CN1CCC(CCNC(=O)C#Cc2ccc(-c3cc(NCCCN4CCCCC4)c4cnccc4n3)cc2)CC1` [N-(2-(1-methylpiperidin-4-yl)ethyl)-3-(4-(4-((3-(piperidin-1-yl)propyl)amino)-1,6-naphthyridin-2-yl)phenyl)propiolamide] had an IC50 of 1000 to 20000 nM.

These data come from patent US11731986B2 (Sanford Burnham Prebys Medical Discovery Institute, priority 2017, dated 2023).
